Results as given in patent publication US20230201217A1 (priority 2019, published 2023).

How the values were obtained:
cynomolgus monkeys = experiment: 14-day nasogastric gavage GLP toxicity study in cynomolgus monkeys; assay type: in vivo, cynomolgus monkey
Source text: Assessments of neurobehavioral effects and general toxicity were based on mortality, functional observational battery (FOB) evaluations, clinical observations, body weight, and body temperature; ophthalmoscopic, electrocardiographic examinations; and anatomic and clinical pathology. The anatomical pathology evaluations included histopathology of a full list of tissues from all animals and a comprehensive evaluation of the central nervous system (including selected peripheral nerves) utilizing whole body perfusion and special stains. Bone marrow smears from all animals were evaluated microscopically. Complete differentials and myeloid-erythroid (ME) ratios were performed. Toxicokinetic assessment was conducted for the test article and metabolites.

[1] = system: human peripheral blood lymphocytes (HPBL); experiment: In vitro chromosome aberration test; assay type: cell-based
Protocol: Based on precipitates observed in the range-finding assay, concentrations used during the definitive chromosome aberration assay were a) 7.5, 15, 25, 50, 100, and 150 μg/mL in the 3-hour treatments with and without metabolic activation, and b) 1.0, 15, 25, 30, 35, 40, 45, 50, 55, 60, and 75 μg/mL in the 22-hour treatment without metabolic activation. These cultures along with the vehicle and one concentration of positive control for each treatment condition were analyzed for aberrations. Structural chromosome aberrations were scored for each concentration from a total of 200 metaphase cells (when possible) or ≥30 aberrant cells. Numerical aberrations were evaluated in 400 metaphase cells per concentration.

CYP2C19 = CYP2C19 (Homo sapiens, UniProt P33261); details: recombinant enzyme
Sequence of CYP2C19 (P33261 whole entry): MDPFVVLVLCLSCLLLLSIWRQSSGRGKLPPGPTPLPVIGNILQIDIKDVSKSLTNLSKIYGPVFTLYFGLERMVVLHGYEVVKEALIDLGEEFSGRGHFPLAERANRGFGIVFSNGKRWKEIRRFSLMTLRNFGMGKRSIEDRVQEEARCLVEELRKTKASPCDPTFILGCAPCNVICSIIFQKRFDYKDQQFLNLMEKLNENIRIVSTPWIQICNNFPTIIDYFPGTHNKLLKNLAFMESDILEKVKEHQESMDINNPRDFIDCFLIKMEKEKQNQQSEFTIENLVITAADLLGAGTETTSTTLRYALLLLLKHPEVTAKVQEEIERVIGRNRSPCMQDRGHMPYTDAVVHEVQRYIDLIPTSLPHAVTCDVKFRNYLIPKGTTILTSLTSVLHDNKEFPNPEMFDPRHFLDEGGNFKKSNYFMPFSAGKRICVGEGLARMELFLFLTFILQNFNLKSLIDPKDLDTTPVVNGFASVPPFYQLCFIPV
Protocol: Control incubations were performed for each assay with appropriate positive inhibitory controls.

[2] = system: rats trained to self-administer cocaine; details: 10-40 mg/kg i.p., cited from earlier work
mouse liver = experiment: In vivo comet assay
Protocol: The comet assay (alkaline single cell gel electrophoresis) is a microgel electrophoretic technique that detects DNA damage in individual cells. DNA damage can be expressed as DNA single strand breaks, double strand breaks, and strand breaks induced by alkali labile sites. […] For this study, the liver was selected as the tissue for evaluation, since this tissue is expected to contain high concentrations of parent drug and metabolites following oral administration.
Male mice were administered oral doses of 0 (vehicle=5% dextrose), 50, 90 and 120 mg/kg/day by gavage according to the table below. Animals in groups 1-4 were dosed on three consecutive days and euthanized 3 to 4 hours after the last dose by CO2 inhalation. A separate group of animals were dosed with methyl methanesulfonate (MMS) which served as a positive control. Immediately following euthanasia, the liver was removed and collected from each animal.
In this study, comet tail migration, % tail DNA (also known as % tail intensity) and tail moment were determined for each animal/treatment group and served as parameters of DNA damage.

[3] = 400/300 mg/kg/day F, 3 examined
[4] = 400/300 mg/kg/day M, 4 examined

COCCC1CC2CN3CCc4c([nH]c5ccccc45)C(C(=O)OC)(C2)C13.Cl (centres unmarked) [18-MC HCl, 18-Methoxycoronaridine hydrochloride]
Thymus: Depletion, lymphoid, cortex; number with observation (cynomolgus monkeys; 150 mg/kg/day F, 3 examined): 3 | Bone marrow, femur: Depletion, mixed, mild; number with observation (cynomolgus monkeys; 150 mg/kg/day M): 0 | Bone marrow, femur: Depletion, mixed, minimal; number with observation (cynomolgus monkeys; 150 mg/kg/day M): 1 | Bone marrow, femur: Depletion, mixed, moderate; number with observation (cynomolgus monkeys; 150 mg/kg/day M): 0 | Bone marrow, rib: Depletion, mixed, mild; number with observation (cynomolgus monkeys; 150 mg/kg/day M): 0 | Bone marrow, rib: Depletion, mixed, minimal; number with observation (cynomolgus monkeys; 150 mg/kg/day M): 1 | Bone marrow, rib: Depletion, mixed, moderate; number with observation (cynomolgus monkeys; 150 mg/kg/day M): 0 | Bone marrow, rib: Depletion, mixed; number with observation (cynomolgus monkeys; 150 mg/kg/day M): 1 | Bone marrow, sternum: Depletion, mixed, mild; number with observation (cynomolgus monkeys; 150 mg/kg/day M): 0 | Bone marrow, sternum: Depletion, mixed, minimal; number with observation (cynomolgus monkeys; 150 mg/kg/day M): 1 | Bone marrow, sternum: Depletion, mixed, moderate; number with observation (cynomolgus monkeys; 150 mg/kg/day M): 0 | Bone marrow, sternum: Depletion, mixed; number with observation (cynomolgus monkeys; 150 mg/kg/day M): 1 | Liver: Hypertrophy, hepatocellular, panlobular, mild; number with observation (cynomolgus monkeys; 150 mg/kg/day M): 3 | Liver: Hypertrophy, hepatocellular, panlobular, minimal; number with observation (cynomolgus monkeys; 150 mg/kg/day M): 0 | Thymus: Depletion lymphoid, generalized, mild; number with observation (cynomolgus monkeys; 150 mg/kg/day M): 0 | Thymus: Depletion lymphoid, generalized, moderate; number with observation (cynomolgus monkeys; 150 mg/kg/day M): 0 | Thymus: Depletion lymphoid, generalized; number with observation (cynomolgus monkeys; 150 mg/kg/day M): 0 | Thymus: Depletion, lymphoid, cortex, mild; number with observation (cynomolgus monkeys; 150 mg/kg/day M): 2 | Thymus: Depletion, lymphoid, cortex, minimal; number with observation (cynomolgus monkeys; 150 mg/kg/day M): 1 | Thymus: Depletion, lymphoid, cortex, moderate; number with observation (cynomolgus monkeys; 150 mg/kg/day M): 0 | mean cumulative body gain (Days 1-14) (cynomolgus monkeys; 150 mg/kg/day M): -0.28 kg | Bone marrow, femur: Depletion, mixed; number with observation (cynomolgus monkeys; 150 mg/kg/day M, 3 examined): 1 | Liver: Hypertrophy, hepatocellular, panlobular; number with observation (cynomolgus monkeys; 150 mg/kg/day M, 3 examined): 3 | Thymus: Depletion, lymphoid, cortex; number with observation (cynomolgus monkeys; 150 mg/kg/day M, 3 examined): 3 | mortality (cynomolgus monkeys; 400 mg/kg, first day of dosing): one male died | Bone marrow, femur: Depletion, mixed, mild; number with observation (cynomolgus monkeys; 400/300 mg/kg/day F): 0 | Bone marrow, femur: Depletion, mixed, minimal; number with observation (cynomolgus monkeys; 400/300 mg/kg/day F): 1 | Bone marrow, femur: Depletion, mixed, moderate; number with observation (cynomolgus monkeys; 400/300 mg/kg/day F): 0 | Bone marrow, rib: Depletion, mixed, mild; number with observation (cynomolgus monkeys; 400/300 mg/kg/day F): 1 | Bone marrow, rib: Depletion, mixed, minimal; number with observation (cynomolgus monkeys; 400/300 mg/kg/day F): 0 | Bone marrow, rib: Depletion, mixed, moderate; number with observation (cynomolgus monkeys; 400/300 mg/kg/day F): 0 | Bone marrow, rib: Depletion, mixed; number with observation (cynomolgus monkeys; 400/300 mg/kg/day F): 1 | Bone marrow, sternum: Depletion, mixed, mild; number with observation (cynomolgus monkeys; 400/300 mg/kg/day F): 1 | Bone marrow, sternum: Depletion, mixed, minimal; number with observation (cynomolgus monkeys; 400/300 mg/kg/day F): 0 | Bone marrow, sternum: Depletion, mixed, moderate; number with observation (cynomolgus monkeys; 400/300 mg/kg/day F): 0 | Bone marrow, sternum: Depletion, mixed; number with observation (cynomolgus monkeys; 400/300 mg/kg/day F): 1 | Liver: Hypertrophy, hepatocellular, panlobular, mild; number with observation (cynomolgus monkeys; 400/300 mg/kg/day F): 3 | Liver: Hypertrophy, hepatocellular, panlobular, minimal; number with observation (cynomolgus monkeys; 400/300 mg/kg/day F): 0 | Thymus: Depletion lymphoid, generalized, mild; number with observation (cynomolgus monkeys; 400/300 mg/kg/day F): 2 | Thymus: Depletion lymphoid, generalized, moderate; number with observation (cynomolgus monkeys; 400/300 mg/kg/day F): 1 | Thymus: Depletion lymphoid, generalized; number with observation (cynomolgus monkeys; 400/300 mg/kg/day F): 3 | Thymus: Depletion, lymphoid, cortex, mild; number with observation (cynomolgus monkeys; 400/300 mg/kg/day F): 0 | Thymus: Depletion, lymphoid, cortex, minimal; number with observation (cynomolgus monkeys; 400/300 mg/kg/day F): 0 | Thymus: Depletion, lymphoid, cortex, moderate; number with observation (cynomolgus monkeys; 400/300 mg/kg/day F): 0 | mean cumulative body gain (Days 1-14) (cynomolgus monkeys; 400/300 mg/kg/day F): -0.09 kg | Bone marrow, femur: Depletion, mixed; number with observation (cynomolgus monkeys; [3]): 1 | Liver: Hypertrophy, hepatocellular, panlobular; number with observation (cynomolgus monkeys; [3]): 3 | Thymus: Depletion, lymphoid, cortex; number with observation (cynomolgus monkeys; [3]): 0 | Bone marrow, femur: Depletion, mixed, mild; number with observation (cynomolgus monkeys; 400/300 mg/kg/day M): 1 | Bone marrow, femur: Depletion, mixed, minimal; number with observation (cynomolgus monkeys; 400/300 mg/kg/day M): 0 | Bone marrow, femur: Depletion, mixed, moderate; number with observation (cynomolgus monkeys; 400/300 mg/kg/day M): 1 | Bone marrow, rib: Depletion, mixed, mild; number with observation (cynomolgus monkeys; 400/300 mg/kg/day M): 1 | Bone marrow, rib: Depletion, mixed, minimal; number with observation (cynomolgus monkeys; 400/300 mg/kg/day M): 0 | Bone marrow, rib: Depletion, mixed, moderate; number with observation (cynomolgus monkeys; 400/300 mg/kg/day M): 1 | Bone marrow, rib: Depletion, mixed; number with observation (cynomolgus monkeys; 400/300 mg/kg/day M): 2 | Bone marrow, sternum: Depletion, mixed, mild; number with observation (cynomolgus monkeys; 400/300 mg/kg/day M): 1 | Bone marrow, sternum: Depletion, mixed, minimal; number with observation (cynomolgus monkeys; 400/300 mg/kg/day M): 0 | Bone marrow, sternum: Depletion, mixed, moderate; number with observation (cynomolgus monkeys; 400/300 mg/kg/day M): 1 | Bone marrow, sternum: Depletion, mixed; number with observation (cynomolgus monkeys; 400/300 mg/kg/day M): 2 | Liver: Hypertrophy, hepatocellular, panlobular, mild; number with observation (cynomolgus monkeys; 400/300 mg/kg/day M): 3 | Liver: Hypertrophy, hepatocellular, panlobular, minimal; number with observation (cynomolgus monkeys; 400/300 mg/kg/day M): 0 | Thymus: Depletion lymphoid, generalized, mild; number with observation (cynomolgus monkeys; 400/300 mg/kg/day M): 1 | Thymus: Depletion lymphoid, generalized, moderate; number with observation (cynomolgus monkeys; 400/300 mg/kg/day M): 2 | Thymus: Depletion lymphoid, generalized; number with observation (cynomolgus monkeys; 400/300 mg/kg/day M): 3 | Thymus: Depletion, lymphoid, cortex, mild; number with observation (cynomolgus monkeys; 400/300 mg/kg/day M): 0 | Thymus: Depletion, lymphoid, cortex, minimal; number with observation (cynomolgus monkeys; 400/300 mg/kg/day M): 0 | Thymus: Depletion, lymphoid, cortex, moderate; number with observation (cynomolgus monkeys; 400/300 mg/kg/day M): 0 | mean cumulative body gain (Days 1-14) (cynomolgus monkeys; 400/300 mg/kg/day M): -0.23 kg | Bone marrow, femur: Depletion, mixed; number with observation (cynomolgus monkeys; [4]): 2 | Liver: Hypertrophy, hepatocellular, panlobular; number with observation (cynomolgus monkeys; [4]): 3 | Thymus: Depletion, lymphoid, cortex; number with observation (cynomolgus monkeys; [4]): 0 | NOAEL (cynomolgus monkeys; 14 days): 50 mg/kg/day | highest non-lethal dose (cynomolgus monkeys; cynomolgus monkey, in vivo): 300 mg/kg | structural chromosome aberrations ([1]; with metabolic activation): positive | structural chromosome aberrations ([1]; without metabolic activation): negative | IC50 (CYP2C19): < 1.5 µM | responding for cocaine ([2]; 15 minutes prior to session): significantly decreased | responding for water [2]: no effect | mean % tail DNA (mouse liver; 90 mg/kg/day, vehicle 1.27+/−0.52): 2.60+/−0.7% | mouse comet assay result (mouse liver; 50, 90, 120 mg/kg/day, 3 days): negative
